These results are taken from ChEMBL document CHEMBL1909294, “Translating clinical findings into knowledge in drug safety evaluation--drug induced liver injury prediction system (DILIps)” (PLoS Comput Biol, 2011).

SMILES strings stand for the structures.

The test system of series [1] is Hepatotoxicity.
For series [2], the system named is Hepatotoxicity. The source holds these as a separate data set.
For series [3], the system named is Hepatotoxicity. This is another data set of the same source.
Series [4] has as its system Hepatotoxicity. This is another data set of the same source.
The test system of series [5] is Hepatotoxicity. This is another data set of the same source.
The subject of series [6] is Hepatotoxicity. The source holds these as a separate data set.
The subject of series [7] is Hepatotoxicity. This is another data set of the same source.
Series [8] concerns Hepatotoxicity. This is another data set of the same source.
Series [9] relates to Hepatotoxicity. The source holds these as a separate data set.
In series [10] the test system is Hepatotoxicity. The source holds these as a separate data set.
The subject of series [11] is Hepatotoxicity. The source holds these as a separate data set.
Series [12] deals with Hepatotoxicity. This is another data set of the same source.
In series [13] the test system is Hepatotoxicity. The source holds these as a separate data set.
Series [14] deals with Hepatotoxicity. The source holds these as a separate data set.
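For HepSE Combined Scores in this document: combined hepatic side effect score as listed in the training data of the Drug Induced Liver Injury Prediction System (DILIps).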
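For HepSE bilirubinemia in this document: bilirubinemia hepatic side effect score drawn from the DILIps training data, a prediction system for drug-induced liver injury; call rule not given here.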
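For HepSE cholecystitis in this document: Cholecystitis-related hepatic side effect score drawn from the DILIps (drug-induced liver injury prediction) training data set; call rule not given here.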
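For HepSE cholelithiasis in this document: hepatic side effect score for cholelithiasis, drawn from the DILIps training data for predicting drug-induced liver injury; call rule not given here.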
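For HepSE cirrhosis in this document: cirrhosis hepatic side effect score taken from the DILIps (drug-induced liver injury prediction) training set; call rule not given here.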
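For HepSE elevated liver function tests in this document: hepatic side effect score for raised liver function tests, as recorded in the DILIps training set used for predicting drug-induced liver injury.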
For HepSE hepatic failure in this document: call rule not given here.
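For HepSE hepatic necrosis in this document: score of hepatic side effects for hepatic necrosis, drawn from the training data of DILIps, a prediction system for drug-induced liver injury; call rule not given here.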
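For HepSE hepatitis in this document: Hepatitis-related hepatic side effect score taken from the training data of DILIps, a prediction system for drug-induced liver injury; call rule not given here.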
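For HepSE hepatomegaly in this document: hepatic side effect score for hepatomegaly, taken from the training set of the DILIps drug-induced liver injury prediction system; call rule not given here.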
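For HepSE jaundice in this document: Jaundice-related hepatic side-effect score drawn from the training data of the DILIps (drug-induced liver injury prediction system); call rule not given here.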
For HepSE liver disease in this document: call rule not given here.
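For HepSE liver fatty in this document: hepatic side effect score for fatty liver, taken from the DILIps training set for predicting drug-induced liver injury; call rule not given here.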
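For HepSE liver function tests abnormal in this document: hepatic side effect score taken from the DILIps (drug-induced liver injury prediction system) training data, here covering abnormal liver function test findings.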

In turn, `C[C@H](O)C(=O)Nc1c(I)c(C(=O)NC(CO)CO)c(I)c(C(=O)NC(CO)CO)c1I` [IOPAMIDOL] showed a HepSE_bilirubinemia in the series on Hepatotoxicity [1] of 0. The compound also returned a HepSE_cholecystitis with Hepatotoxicity [2] of 0. Further, in the series on Hepatotoxicity [3], the HepSE_cholelithiasis came to 0. Also, in the series on Hepatotoxicity [4], the HepSE_cirrhosis is given as 0. Moreover, in the series with Hepatotoxicity [5], the “HepSE_elevated liver function tests” value is 0. The same compound had a HepSE_hepatic failure with Hepatotoxicity [6] of 0. In the series on Hepatotoxicity [7], this compound returned a HepSE_hepatic necrosis of 0. The compound further displayed a HepSE_hepatitis in the series on Hepatotoxicity [8] of 0. In the series on Hepatotoxicity [9], this compound returned a HepSE_hepatomegaly of 0. In the series with Hepatotoxicity [10], the HepSE_jaundice is on record as 0. In the series with Hepatotoxicity [11], this compound returned a HepSE_liver disease of 0. This compound registered a HepSE_liver fatty in the series on Hepatotoxicity [12] of 0. The “HepSE_liver function tests abnormal” value in the series with Hepatotoxicity [13] is given as 0. The “HepSE_Combined Scores” value with Hepatotoxicity [14] is on record as 0.
Compound `Clc1ccc2nsnc2c1NC1=NCCN1` [TIZANIDINE] had a HepSE_bilirubinemia in the series on Hepatotoxicity [1] (Liver) of 0. Also, the HepSE_cholecystitis in the series with Hepatotoxicity [2] (Liver) was found to be 0. Further, the HepSE_cholelithiasis in the series with Hepatotoxicity [3] (Liver) was 1. This compound came in with a HepSE_cirrhosis in the series with Hepatotoxicity [4] (Liver) of 1. In addition, in the series with Hepatotoxicity [5] (Liver), the “HepSE_elevated liver function tests” value is 0. In the series with Hepatotoxicity [6] (Liver), this compound yielded a HepSE_hepatic failure of 1. This compound also returned a HepSE_hepatic necrosis with Hepatotoxicity [7] (Liver) of 1. In the series on Hepatotoxicity [8] (Liver), this compound displayed a HepSE_hepatitis of 1. Further, the HepSE_hepatomegaly with Hepatotoxicity [9] (Liver) is 0. In addition, the HepSE_jaundice in the series with Hepatotoxicity [10] (Liver) worked out at 1. The same compound had a HepSE_liver disease in the series on Hepatotoxicity [11] (Liver) of 1. Also, the HepSE_liver fatty in the series on Hepatotoxicity [12] (Liver) stood at 0. Also, the “HepSE_liver function tests abnormal” value in the series with Hepatotoxicity [13] (Liver) came to 1. In addition, in the series on Hepatotoxicity [14] (Liver), the “HepSE_Combined Scores” value amounted to 8.
Compound `C1N2CN3CN1CN(C2)C3` [METHENAMINE] showed a HepSE_bilirubinemia with Hepatotoxicity [1] of 0. For the same compound, in the series on Hepatotoxicity [2], the HepSE_cholecystitis was 0. This compound came in with a HepSE_cholelithiasis in the series on Hepatotoxicity [3] of 0. In the series with Hepatotoxicity [4], this compound returned a HepSE_cirrhosis of 0. In the series with Hepatotoxicity [5], the “HepSE_elevated liver function tests” value came to 0. For the same compound, the HepSE_hepatic failure in the series with Hepatotoxicity [6] is 0. Also, the HepSE_hepatic necrosis in the series with Hepatotoxicity [7] amounted to 0. This compound also showed a HepSE_hepatitis with Hepatotoxicity [8] of 0. The compound further showed a HepSE_hepatomegaly with Hepatotoxicity [9] of 0. Also, in the series on Hepatotoxicity [10], the HepSE_jaundice is listed as 0. For the same compound, in the series with Hepatotoxicity [11], the HepSE_liver disease was found to be 0. This compound came in with a HepSE_liver fatty in the series with Hepatotoxicity [12] of 0. In the series on Hepatotoxicity [13], the “HepSE_liver function tests abnormal” value amounted to 0. Also, in the series on Hepatotoxicity [14], the “HepSE_Combined Scores” value is on record as 0.
`NCCS` [CYSTEAMINE] returned a HepSE_bilirubinemia in the series on Hepatotoxicity [1] of 0. The same compound registered a HepSE_cholecystitis with Hepatotoxicity [2] of 0. Moreover, the HepSE_cholelithiasis in the series on Hepatotoxicity [3] turned out to be 0. Besides, the HepSE_cirrhosis with Hepatotoxicity [4] was determined as 0. The “HepSE_elevated liver function tests” value in the series on Hepatotoxicity [5] is on record as 0. The compound also came in with a HepSE_hepatic failure with Hepatotoxicity [6] of 0. This compound also gave a HepSE_hepatic necrosis in the series on Hepatotoxicity [7] of 0. In the series on Hepatotoxicity [8], this compound showed a HepSE_hepatitis of 0. The HepSE_hepatomegaly with Hepatotoxicity [9] is 0. For the same compound, in the series on Hepatotoxicity [10], the HepSE_jaundice was found to be 0. In the series with Hepatotoxicity [11], the HepSE_liver disease came to 0. Further, the HepSE_liver fatty with Hepatotoxicity [12] is listed as 0. Also, the “HepSE_liver function tests abnormal” value with Hepatotoxicity [13] is given as 0. The “HepSE_Combined Scores” value in the series with Hepatotoxicity [14] is 0.
In the series on Hepatotoxicity [1], `[H]/N=C(\N/C(=N/[H])NCCCCCCNC(=N)NC(=N)Nc1ccc(Cl)cc1)Nc1ccc(Cl)cc1` [CHLORHEXIDINE] returned a HepSE_bilirubinemia of 0. Also, the HepSE_cholecystitis in the series with Hepatotoxicity [2] was determined as 0. In the series on Hepatotoxicity [3], this compound yielded a HepSE_cholelithiasis of 0. In the series on Hepatotoxicity [4], this compound came in with a HepSE_cirrhosis of 0. Besides, in the series with Hepatotoxicity [5], the “HepSE_elevated liver function tests” value was determined as 0. In the series with Hepatotoxicity [6], the HepSE_hepatic failure turned out to be 0. Besides, the HepSE_hepatic necrosis in the series on Hepatotoxicity [7] was determined as 0. This compound registered a HepSE_hepatitis with Hepatotoxicity [8] of 0. The HepSE_hepatomegaly in the series on Hepatotoxicity [9] is 0. The HepSE_jaundice with Hepatotoxicity [10] is 0. In the series on Hepatotoxicity [11], this compound displayed a HepSE_liver disease of 0. In the series with Hepatotoxicity [12], this compound yielded a HepSE_liver fatty of 0. In the series with Hepatotoxicity [13], the “HepSE_liver function tests abnormal” value is recorded as 0. Further, the “HepSE_Combined Scores” value in the series with Hepatotoxicity [14] is given as 0.
Consider `CC1CNc2c(cccc2S(=O)(=O)N[C@@H](CCCNC(=N)N)C(=O)N2CC[C@@H](C)C[C@@H]2C(=O)O)C1` (stereo not given in full) [ARGATROBAN], for which, in the series on Hepatotoxicity [1], the HepSE_bilirubinemia is 0. Also, in the series on Hepatotoxicity [2], the HepSE_cholecystitis is reported as 0. Moreover, the HepSE_cholelithiasis in the series on Hepatotoxicity [3] was found to be 0. In the series on Hepatotoxicity [4], this compound registered a HepSE_cirrhosis of 0. Moreover, the “HepSE_elevated liver function tests” value in the series on Hepatotoxicity [5] turned out to be 0. The same compound displayed a HepSE_hepatic failure with Hepatotoxicity [6] of 0. In addition, the HepSE_hepatic necrosis in the series with Hepatotoxicity [7] is given as 0. For the same compound, in the series with Hepatotoxicity [8], the HepSE_hepatitis is on record as 0. The HepSE_hepatomegaly with Hepatotoxicity [9] stood at 0. In the series on Hepatotoxicity [10], this compound yielded a HepSE_jaundice of 0. This compound also registered a HepSE_liver disease in the series on Hepatotoxicity [11] of 0. The same compound registered a HepSE_liver fatty with Hepatotoxicity [12] of 0. Further, the “HepSE_liver function tests abnormal” value in the series on Hepatotoxicity [13] is recorded as 0. Besides, the “HepSE_Combined Scores” value in the series on Hepatotoxicity [14] was 0.
`CCNC(=O)CCC/C=C\C[C@@H]1[C@@H](/C=C/[C@@H](O)CCc2ccccc2)[C@H](O)C[C@@H]1O` [BIMATOPROST] came in with a HepSE_bilirubinemia in the series on Hepatotoxicity [1] of 0. Besides, in the series with Hepatotoxicity [2], the HepSE_cholecystitis came out at 0. The compound also yielded a HepSE_cholelithiasis in the series with Hepatotoxicity [3] of 0. The same compound registered a HepSE_cirrhosis in the series on Hepatotoxicity [4] of 0. For the same compound, the “HepSE_elevated liver function tests” value in the series with Hepatotoxicity [5] is reported as 0. The compound also came in with a HepSE_hepatic failure with Hepatotoxicity [6] of 0. Moreover, the HepSE_hepatic necrosis in the series with Hepatotoxicity [7] is 0. Further, the HepSE_hepatitis in the series with Hepatotoxicity [8] was 0. In addition, the HepSE_hepatomegaly in the series with Hepatotoxicity [9] turned out to be 0. Besides, the HepSE_jaundice in the series on Hepatotoxicity [10] was 0. The HepSE_liver disease in the series on Hepatotoxicity [11] is given as 0. In the series on Hepatotoxicity [12], this compound registered a HepSE_liver fatty of 0. Besides, in the series on Hepatotoxicity [13], the “HepSE_liver function tests abnormal” value is given as 1. Besides, the “HepSE_Combined Scores” value with Hepatotoxicity [14] came out at 1.
`CCN(CC)CCOC(=O)C1(C2CCCCC2)CCCCC1` [DICYCLOMINE] displayed a HepSE_bilirubinemia in the series with Hepatotoxicity [1] of 0. In the series with Hepatotoxicity [2], the HepSE_cholecystitis was 0. In the series on Hepatotoxicity [3], the HepSE_cholelithiasis turned out to be 0. Further, the HepSE_cirrhosis with Hepatotoxicity [4] is 0. Moreover, the “HepSE_elevated liver function tests” value with Hepatotoxicity [5] (Liver) is 0. Moreover, the HepSE_hepatic failure in the series on Hepatotoxicity [6] came out at 0. This compound also showed a HepSE_hepatic necrosis in the series with Hepatotoxicity [7] of 0. In the series on Hepatotoxicity [8], this compound displayed a HepSE_hepatitis of 0. In the series on Hepatotoxicity [9], this compound gave a HepSE_hepatomegaly of 0. Besides, the HepSE_jaundice in the series on Hepatotoxicity [10] was 0. The same compound had a HepSE_liver disease with Hepatotoxicity [11] of 0. Besides, the HepSE_liver fatty with Hepatotoxicity [12] is on record as 0. Further, in the series with Hepatotoxicity [13] (Liver), the “HepSE_liver function tests abnormal” value turned out to be 0. Also, the “HepSE_Combined Scores” value in the series with Hepatotoxicity [14] came out at 0.
As for `Cc1onc(-c2c(Cl)cccc2Cl)c1C(=O)N[C@@H]1C(=O)N2[C@@H]1SC(C)(C)[C@@H]2C(=O)O` [DICLOXACILLIN], the HepSE_bilirubinemia in the series with Hepatotoxicity [1] worked out at 0. The HepSE_cholecystitis with Hepatotoxicity [2] came to 0. The HepSE_cholelithiasis in the series with Hepatotoxicity [3] came out at 0. The compound also returned a HepSE_cirrhosis in the series on Hepatotoxicity [4] of 0. Moreover, the “HepSE_elevated liver function tests” value with Hepatotoxicity [5] was 0. The HepSE_hepatic failure with Hepatotoxicity [6] came to 0. Besides, the HepSE_hepatic necrosis with Hepatotoxicity [7] came to 0. The HepSE_hepatitis with Hepatotoxicity [8] is given as 1. In addition, the HepSE_hepatomegaly with Hepatotoxicity [9] is on record as 0. The compound also came in with a HepSE_jaundice with Hepatotoxicity [10] of 0. For the same compound, the HepSE_liver disease with Hepatotoxicity [11] is 0. This compound also came in with a HepSE_liver fatty with Hepatotoxicity [12] of 0. Further, the “HepSE_liver function tests abnormal” value in the series with Hepatotoxicity [13] worked out at 1. Besides, in the series on Hepatotoxicity [14], the “HepSE_Combined Scores” value came out at 2.
For `Cc1ccc(C(=O)c2ccc(CC(=O)O)n2C)cc1` [TOLMETIN], in the series with Hepatotoxicity [1], the HepSE_bilirubinemia stood at 0. The same compound gave a HepSE_cholecystitis in the series on Hepatotoxicity [2] of 0. The compound also had a HepSE_cholelithiasis in the series with Hepatotoxicity [3] of 0. Also, the HepSE_cirrhosis in the series on Hepatotoxicity [4] stood at 0. Besides, the “HepSE_elevated liver function tests” value in the series with Hepatotoxicity [5] was 0. Besides, the HepSE_hepatic failure with Hepatotoxicity [6] is 0. For the same compound, in the series on Hepatotoxicity [7], the HepSE_hepatic necrosis came to 0. In the series on Hepatotoxicity [8], the HepSE_hepatitis came to 1. This compound came in with a HepSE_hepatomegaly with Hepatotoxicity [9] of 0. Also, the HepSE_jaundice in the series with Hepatotoxicity [10] is 0. In the series on Hepatotoxicity [11], this compound yielded a HepSE_liver disease of 0. For the same compound, the HepSE_liver fatty in the series on Hepatotoxicity [12] stood at 0. In the series with Hepatotoxicity [13], the “HepSE_liver function tests abnormal” value is listed as 0. In addition, the “HepSE_Combined Scores” value with Hepatotoxicity [14] worked out at 1.
